Reference: ChEMBL document CHEMBL1131884, “Dicationic 2-fluorenonylcarbapenems: potent anti-MRS agents with improved solubility and pharmacokinetic properties” (Bioorg Med Chem Lett, 1999)

Experiments:
Staphylococcus aureus = assay: Antibacterial activity against methicillin-resistant Staphylococcus aureus (MRSA); assay type: functional
Staphylococcus sp. = assay: Antibacterial activity against methicillin-resistant coagulase negative Staphylococci (MRCNS); assay type: functional
MecA = biological target: T1, MecA (Staphylococcus aureus, UniProt Q7DHH4); assay: Binding affinity against PBP2a receptor by competition analysis with [3H]benzylpenicillin using cell membrane fractions from the MRSA COL strain.
T1 sequence (Q7DHH4 whole entry): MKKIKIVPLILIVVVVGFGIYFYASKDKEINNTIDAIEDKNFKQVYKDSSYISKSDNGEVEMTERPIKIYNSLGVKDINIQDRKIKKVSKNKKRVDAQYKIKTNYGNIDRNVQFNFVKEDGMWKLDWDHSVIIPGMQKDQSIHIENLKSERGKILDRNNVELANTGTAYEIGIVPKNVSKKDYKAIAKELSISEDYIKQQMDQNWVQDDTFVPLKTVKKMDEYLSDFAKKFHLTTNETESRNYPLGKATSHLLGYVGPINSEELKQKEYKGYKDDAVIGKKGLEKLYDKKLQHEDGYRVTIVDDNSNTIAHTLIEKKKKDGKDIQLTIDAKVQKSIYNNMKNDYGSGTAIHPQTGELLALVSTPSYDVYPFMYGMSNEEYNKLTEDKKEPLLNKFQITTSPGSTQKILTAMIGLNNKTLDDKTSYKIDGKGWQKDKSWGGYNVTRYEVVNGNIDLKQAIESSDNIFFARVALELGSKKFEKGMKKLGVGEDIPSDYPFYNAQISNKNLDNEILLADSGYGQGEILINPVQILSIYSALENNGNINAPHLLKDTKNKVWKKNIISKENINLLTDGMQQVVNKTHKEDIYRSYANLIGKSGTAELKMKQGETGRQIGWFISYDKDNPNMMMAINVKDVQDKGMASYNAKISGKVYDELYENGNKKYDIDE

Structure (SMILES)	MIC50 (Staphylococcus aureus) [µg/mL]	MIC90 (Staphylococcus aureus) [µg/mL]	MIC50 (Staphylococcus sp.) [µg/mL]	MIC90 (Staphylococcus sp.) [µg/mL]	IC50 (MecA) [nM]
CNC(=O)C[N+]12CC[N+](Cc3ccc4c(c3)C(=O)c3ccc(C5=C(C(=O)O)N6C(=O)[C@H]([C@@H](C)O)[C@H]6[C@H]5C)cc3-4)(CC1)CC2.[Cl-].[Cl-]	4	8	4	8	502
C[C@@H](O)[C@H]1C(=O)N2C(C(=O)O)=C(c3ccc4c(c3)-c3ccc(C[N+]56CC[N+](CCO)(CC5)CC6)cc3C4=O)C[C@H]12.[Cl-].[Cl-]	2	4	2	4	276
C[C@@H](O)[C@H]1C(=O)N2C(C(=O)O)=C(c3ccc4c(c3)-c3ccc(C[N+]56CC[N+](CC(=O)Nc7cccc(C(N)=O)c7)(CC5)CC6)cc3C4=O)[C@H](C)[C@H]12.[Cl-].[Cl-]	1	1	1	2	1220
C[C@@H](O)[C@H]1C(=O)N2C(C(=O)O)=C(c3ccc4c(c3)-c3ccc(C[N+]56CC[N+](CC(=O)Nc7ccccc7C(N)=O)(CC5)CC6)cc3C4=O)[C@H](C)[C@H]12.[Cl-].[Cl-]	2	4	2	8	1020
C[C@@H](O)[C@H]1C(=O)N2C(C(=O)O)=C(c3ccc4c(c3)-c3ccc(C[N+]56CC[N+](CC(=O)Nc7ccccc7C#N)(CC5)CC6)cc3C4=O)[C@H](C)[C@H]12.[Cl-].[Cl-]	1	2	2	4	1100
CCC[N+]12CC[N+](Cc3ccc4c(c3)C(=O)c3ccc(C5=C(C(=O)O)N6C(=O)[C@H]([C@@H](C)O)[C@H]6C5)cc3-4)(CC1)CC2.[Cl-].[Cl-]	2	4	2	4	456
C[C@@H](O)[C@H]1C(=O)N2C(C(=O)O)=C(c3ccc4c(c3)-c3ccc(C[N+]56CC[N+](CC(=O)N(C)C)(CC5)CC6)cc3C4=O)[C@H](C)[C@H]12.[Cl-].[Cl-]	4	8	4	16	581
CC(C)NC(=O)C[N+]12CC[N+](Cc3ccc4c(c3)C(=O)c3ccc(C5=C(C(=O)O)N6C(=O)[C@H]([C@@H](C)O)[C@H]6[C@H]5C)cc3-4)(CC1)CC2.[Cl-].[Cl-]	2	4	4	8	1240
C[C@@H](O)[C@H]1C(=O)N2C(C(=O)O)=C(c3ccc4c(c3)-c3ccc(C[N+]56CC[N+](CC(=O)Nc7ccccc7)(CC5)CC6)cc3C4=O)C[C@H]12.[Cl-].[Cl-]	0.5	2	1	1	468
C[C@@H](O)[C@H]1C(=O)N2C(C(=O)O)=C(c3ccc4c(c3)-c3ccc(C[N+]56CC[N+](CC(=O)c7ccccc7)(CC5)CC6)cc3C4=O)[C@H](C)[C@H]12.[Cl-].[Cl-]	1	2	2	4	880
C[C@@H](O)[C@H]1C(=O)N2C(C(=O)O)=C(c3ccc4c(c3)-c3ccc(C[N+]56CC[N+](CCCC(N)=O)(CC5)CC6)cc3C4=O)[C@H](C)[C@H]12.[Cl-].[Cl-]	4	4	4	8	2980
C[C@@H](O)[C@H]1C(=O)N2C(C(=O)O)=C(c3ccc4c(c3)-c3ccc(C[N+]56CC[N+](CCO)(CC5)CC6)cc3C4=O)[C@H](C)[C@H]12.[Cl-].[Cl-]	4	4	4	8	1030
C[C@@H](O)[C@H]1C(=O)N2C(C(=O)O)=C(c3ccc4c(c3)-c3ccc(C[N+]56CC[N+](CC#N)(CC5)CC6)cc3C4=O)[C@H](C)[C@H]12.[Cl-].[Cl-]	2	4	4	8	464
C[C@@H](O)[C@H]1C(=O)N2C(C(=O)O)=C(c3ccc4c(c3)-c3ccc(C[N+]56CC[N+](CCCO)(CC5)CC6)cc3C4=O)C[C@H]12.[Cl-].[Cl-]	2	8	4	4	1270
C[C@@H](O)[C@H]1C(=O)N2C(C(=O)O)=C(c3ccc4c(c3)-c3ccc(C[N+]56CC[N+](C)(CC5)CC6)cc3C4=O)C[C@H]12.[Cl-].[Cl-]	2	8	2	4	307
CCCNC(=O)C[N+]12CC[N+](Cc3ccc4c(c3)C(=O)c3ccc(C5=C(C(=O)O)N6C(=O)[C@H]([C@@H](C)O)[C@H]6[C@H]5C)cc3-4)(CC1)CC2.[Cl-].[Cl-]	2	4	4	8	1230
C[C@@H](O)[C@H]1C(=O)N2C(C(=O)O)=C(c3ccc4c(c3)-c3ccc(C[N+]56CC[N+](CC(=O)Nc7cccc(CO)c7)(CC5)CC6)cc3C4=O)[C@H](C)[C@H]12.[Cl-].[Cl-]	1	2	1	4	1600
C[C@@H](O)[C@H]1C(=O)N2C(C(=O)O)=C(c3ccc4c(c3)-c3ccc(C[N+]56CC[N+](CC(=O)N(C)c7ccccc7)(CC5)CC6)cc3C4=O)[C@H](C)[C@H]12.[Cl-].[Cl-]	4	4	8	16	1230
CC(=O)c1ccc(NC(=O)C[N+]23CC[N+](Cc4ccc5c(c4)C(=O)c4ccc(C6=C(C(=O)O)N7C(=O)[C@H]([C@@H](C)O)[C@H]7[C@H]6C)cc4-5)(CC2)CC3)cc1.[Cl-].[Cl-]	0.5	1	1	4	3150
C[C@@H](O)[C@H]1C(=O)N2C(C(=O)O)=C(c3ccc4c(c3)-c3ccc(C[N+]56CC[N+](CC(=O)Nc7nccs7)(CC5)CC6)cc3C4=O)[C@H](C)[C@H]12.[Cl-].[Cl-]	2	4	4	8	853
CC(=O)c1cccc(NC(=O)C[N+]23CC[N+](Cc4ccc5c(c4)C(=O)c4ccc(C6=C(C(=O)O)N7C(=O)[C@H]([C@@H](C)O)[C@H]7[C@H]6C)cc4-5)(CC2)CC3)c1.[Cl-].[Cl-]	1	2	1	4	1290
C[C@@H](O)[C@H]1C(=O)N2C(C(=O)O)=C(c3ccc4c(c3)-c3ccc(C[N+]56CC[N+](CC(=O)Nc7ccc(C(N)=O)cc7)(CC5)CC6)cc3C4=O)[C@H](C)[C@H]12.[Cl-].[Cl-]	0.25	0.5	0.5	2	1970
C[C@@H](O)[C@H]1C(=O)N2C(C(=O)O)=C(c3ccc4c(c3)-c3ccc(C[N+]56CC[N+](CC(=O)Nc7cccnc7)(CC5)CC6)cc3C4=O)[C@H](C)[C@H]12.[Cl-].[Cl-]	1	2	2	4	611
